Values quoted from earlier work in US20150314047A1, “BORON COMPOSITE SURFACE COATINGS AND THEIR APPLICATION ON IMPLANTABLE DEVICES TO ACCELERATE OSSEOUS HEALING” (Rutgers, The State University of New Jersey, priority 2014, published 2015).
Like-named read-outs stand apart in the source and are kept apart here.

Tests used:
[1] = tested on: axial skeleton; details: boron administered at several concentrations
[2] = tested on: pre-osteoblastic cells; details: 0.1, 1, 10, and 100 ng/mL boron concentrations
[3] = tested on: human origin cultured cells

Compound: [B] [boron]
- Higher resistance to vertebral crushing force [1]: 10%
- Bone Morphogenic Proteins (BMPs)-4, -6, and -7 [2]: increases

Compound: [Co] [cobalt]
- Effect on cell survival ([3]; even at reasonably high concentrations): negatively affected cell survival

Compound: cubic boron nitride
- Effect on cell survival [3]: did not affect cell survival
